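How tested: cells in 96-well plates exposed to compound for 48 hours at five concentrations. Abbreviation: GI50, concentration required for 50% inhibition of growth. At the TGI there is no net growth.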
Key:
Assay in all cases: DTP human tumour cell line panel, 48 h
TK-10 renal = test system: TK-10 renal
BT-549 breast = test system: BT-549 breast
HOP-92 NSCLC = test system: HOP-92 NSCLC
SF-539 CNS = test system: SF-539 CNS
MCF7 breast = test system: MCF7 breast
HCT-116 colon = test system: HCT-116 colon
SN12C renal = test system: SN12C renal
HL-60(TB) leukemia = test system: HL-60(TB) leukemia
786-0 renal = test system: 786-0 renal
OVCAR-5 ovarian = test system: OVCAR-5 ovarian
HT29 colon = test system: HT29 colon
MOLT-4 leukemia = test system: MOLT-4 leukemia
NCI-H226 lung = test system: NCI-H226 lung
NCI-H23 lung = test system: NCI-H23 lung
OVCAR-8 ovarian = test system: OVCAR-8 ovarian
SK-MEL-2 melanoma = test system: SK-MEL-2 melanoma
KM12 colon = test system: KM12 colon
COLO 205 colon = test system: COLO 205 colon
T-47D breast = test system: T-47D breast
SF-295 CNS = test system: SF-295 CNS
SK-OV-3 ovarian = test system: SK-OV-3 ovarian
SNB-75 CNS = test system: SNB-75 CNS
PC-3 prostate = test system: PC-3 prostate
OVCAR-3 ovarian = test system: OVCAR-3 ovarian
HCT-15 colon = test system: HCT-15 colon
A549 NSCLC = test system: A549 NSCLC
SF-268 CNS = test system: SF-268 CNS

**Q.** `c1ccc2c3ccn4cc5c(cc4c-3nc2c1)CCCC5` was tested. Which GI50 (TK-10 renal) did it give?
**A.** 12.8 µM

**Q.** What about the TGI (TK-10 renal) of the same molecule?
**A.** 26 µM

**Q.** And the GI50 (BT-549 breast)?
**A.** 11.3 µM

**Q.** And the TGI (BT-549 breast)?
**A.** 59.6 µM

**Q.** And the GI50 (HOP-92 NSCLC)?
**A.** 5.04 µM

**Q.** What about the TGI (HOP-92 NSCLC) of the same molecule?
**A.** 48.7 µM

**Q.** And the GI50 (SF-539 CNS)?
**A.** 3.4 µM

**Q.** And the TGI (SF-539 CNS)?
**A.** 17.1 µM

**Q.** And the GI50 (MCF7 breast)?
**A.** 2.5 µM

**Q.** And the TGI (MCF7 breast)?
**A.** 11 µM

**Q.** And the GI50 (HCT-116 colon)?
**A.** 2.72 µM

**Q.** What about the TGI (HCT-116 colon) of the same molecule?
**A.** 8.94 µM

**Q.** What about the GI50 (SN12C renal) of the same molecule?
**A.** 3.57 µM

**Q.** What about the TGI (SN12C renal) of the same molecule?
**A.** 16.2 µM

**Q.** And the GI50 (HL-60(TB) leukemia)?
**A.** 0.81 µM

**Q.** What about the TGI (HL-60(TB) leukemia) of the same molecule?
**A.** 3.81 µM

**Q.** What about the GI50 (786-0 renal) of the same molecule?
**A.** 3.46 µM

**Q.** And the TGI (786-0 renal)?
**A.** 13.5 µM

**Q.** And the GI50 (OVCAR-5 ovarian)?
**A.** 4.49 µM

**Q.** What about the TGI (OVCAR-5 ovarian) of the same molecule?
**A.** 19.3 µM

**Q.** What about the GI50 (HT29 colon) of the same molecule?
**A.** 2.55 µM

**Q.** What about the TGI (HT29 colon) of the same molecule?
**A.** 13 µM

**Q.** What about the GI50 (MOLT-4 leukemia) of the same molecule?
**A.** 2.45 µM

**Q.** What about the TGI (MOLT-4 leukemia) of the same molecule?
**A.** 12.5 µM

**Q.** What about the GI50 (NCI-H226 lung) of the same molecule?
**A.** 3.3 µM

**Q.** What about the TGI (NCI-H226 lung) of the same molecule?
**A.** 10.2 µM

**Q.** And the GI50 (NCI-H23 lung)?
**A.** 3.13 µM

**Q.** What about the TGI (NCI-H23 lung) of the same molecule?
**A.** 14.7 µM

**Q.** And the GI50 (OVCAR-8 ovarian)?
**A.** 3.62 µM

**Q.** What about the TGI (OVCAR-8 ovarian) of the same molecule?
**A.** 51.2 µM

**Q.** And the GI50 (SK-MEL-2 melanoma)?
**A.** 3.05 µM

**Q.** And the TGI (SK-MEL-2 melanoma)?
**A.** 10.2 µM

**Q.** And the TGI (KM12 colon)?
**A.** 8.59 µM

**Q.** What about the GI50 (COLO 205 colon) of the same molecule?
**A.** 2.37 µM

**Q.** What about the TGI (COLO 205 colon) of the same molecule?
**A.** 6.16 µM

**Q.** And the GI50 (T-47D breast)?
**A.** 3.27 µM

**Q.** What about the TGI (T-47D breast) of the same molecule?
**A.** 15 µM

**Q.** And the GI50 (SF-295 CNS)?
**A.** 2.37 µM

**Q.** What about the TGI (SF-295 CNS) of the same molecule?
**A.** 10.5 µM

**Q.** What about the GI50 (SK-OV-3 ovarian) of the same molecule?
**A.** 3.41 µM

**Q.** What about the TGI (SK-OV-3 ovarian) of the same molecule?
**A.** 10.5 µM

**Q.** And the GI50 (SNB-75 CNS)?
**A.** 3.12 µM

**Q.** And the TGI (SNB-75 CNS)?
**A.** 12.3 µM

**Q.** And the TGI (PC-3 prostate)?
**A.** 12.1 µM

**Q.** What about the GI50 (OVCAR-3 ovarian) of the same molecule?
**A.** 3.31 µM

**Q.** What about the TGI (OVCAR-3 ovarian) of the same molecule?
**A.** 8.84 µM

**Q.** What about the GI50 (HCT-15 colon) of the same molecule?
**A.** 24.1 µM

**Q.** What about the TGI (HCT-15 colon) of the same molecule?
**A.** > 100 µM

**Q.** And the GI50 (A549 NSCLC)?
**A.** 9.19 µM

**Q.** And the TGI (A549 NSCLC)?
**A.** 32.6 µM

**Q.** And the TGI (SF-268 CNS)?
**A.** 14.4 µM

Source: PubChem BioAssay (NCI)
